Experimental data: patent US20030211942A1, “Aryl sulfonyl amino carbonyl triazole based selective herbicides” (priority 2000, published 2003)
Several values for one entry are separate records, joined by “and”; a condition that tells them apart may be missing. Equal values may be shown once.

Experiments:
Test in all cases: Post-emergence/greenhouse herbicidal test
Type in all cases: in vivo
Veronica persicaria = conditions: post-emergence, about 3 weeks
Source text: (§1) Procarbazone- and flucarbazone-sodium were used as 70 WG formulation. Fenoxaprop-P-ethyl was used in a mixture with mefenpyr-diethyl (75 g of mefenpyr-diethyl/l) as Ralon® Super 69 EW. Cinidon-ethyl and florasulam and iodosufuron in a mixture with mefenpyr-diethyl were used in the form of the finished formulations Lotus® 200 EC, Primus® 50 SC and Hussar® 5 WG (15% mefenpyr-diethyl), respectively. Amicarbazone was used as 70 WG formulation.
(§2) In pre- and post-emergence experiments, the spray liquor is usually admixed with a surfactant (Renex 36), at a concentration of 0.1%.
(§3) Test plants are grown under controlled conditions (temperature and light).
(§4) Following the spray application, the plant containers are kept in a greenhouse under constant light and temperature conditions.
(§5) After about 3 weeks, the degree of damage to the plants is rated in % damage in comparison to the development of the untreated control.
(§6) 0% =no damage (like untreated control)
(§7) 100% =total destruction/damage

Galium aparine = conditions: post-emergence, about 3 weeks
Source text: as §1, §2, §3, §4, §5, §6, §7

Digitaria sanguinalis = conditions: post-emergence, about 3 weeks
Source text: as §1, §2, §3, §4, §5, §6, §7

Xanthium strumarium = conditions: post-emergence, about 3 weeks
Source text: as §1, §2, §3, §4, §5, §6, §7

Amaranthus retroflexus = conditions: post-emergence, about 3 weeks
Source text: as §1, §2, §3, §4, §5, §6, §7

Bromus secalinus = conditions: post-emergence, about 3 weeks
Source text: as §1, §2, §3, §4, §5, §6, §7

Matricaria inodora = test system: Matricaria inodora
Source text: as §1, §2, §3, §4, §5, §6, §7

Alopecurus myosuroides = conditions: post-emergence, about 3 weeks
Source text: as §1, §2, §3, §4, §5, §6, §7

Polygonum convolvolus = conditions: post-emergence, about 3 weeks
Source text: as §1, §2, §3, §4, §5, §6, §7

Lolium perenne = conditions: post-emergence, about 3 weeks
Source text: as §1, §2, §3, §4, §5, §6, §7

Abutilon theophrasti = conditions: post-emergence, about 3 weeks
Source text: as §1, §2, §3, §4, §5, §6, §7

Viola arvensis = conditions: post-emergence, about 3 weeks
Source text: as §1, §2, §3, §4, §5, §6, §7

Echinochloa crus-galli = test system: Echinochloa crus-galli
Source text: as §1, §2, §3, §4, §5, §6, §7

Cassia tora = test system: Cassia tora
Source text: as §1, §2, §3, §4, §5, §6, §7

Avena fatua = test system: Avena fatua
Source text: as §1, §2, §3, §4, §5, §6, §7

Chenopodium album = conditions: post-emergence, about 3 weeks
Source text: as §1, §2, §3, §4, §5, §6, §7

Stellaria media = conditions: post-emergence, about 3 weeks
Source text: as §1, §2, §3, §4, §5, §6, §7

Eriochloa villosa = conditions: 60 g of ai/ha, post-emergence, about 3 weeks
Source text: as §1, §2, §3, §4, §5, §6, §7

Datura strumarium = conditions: post-emergence, about 3 weeks
Source text: as §1, §2, §3, §4, §5, §6, §7

[1] = 2 g of ai/ha, post-emergence, about 3 weeks
[2] = 4 g of ai/ha, post-emergence, about 3 weeks
[3] = 8 g of ai/ha, post-emergence, about 3 weeks
[4] = 15 g of ai/ha, post-emergence, about 3 weeks
[5] = 60 g of ai/ha, post-emergence, about 3 weeks
[6] = 30 g of ai/ha, post-emergence, about 3 weeks

`COc1ncc(F)c2nc(S(=O)(=O)Nc3c(F)cccc3F)nn12` [Florasulam, N-(2,6-difluoro-phenyl)-8-fluoro-5-methoxy-[1,2,4]-triazolo-[1,5-c]-pyrimidine-2-sulphonamide] showed a Veronica persicaria observed (Veronica persicaria; 2 g of ai/ha) of 0%, a Veronica persicaria observed (Veronica persicaria; 4 g of ai/ha) of 0% and a Galium aparine observed (Galium aparine; 2 g of ai/ha) of 50%. The Galium aparine observed (Galium aparine; 4 g of ai/ha) was 50%, the Digitaria sanguinalis observed (Digitaria sanguinalis; 2 g of ai/ha) was 0% and the Digitaria sanguinalis observed (Digitaria sanguinalis; 4 g of ai/ha) was 0%. The Xanthium strumarium observed (Xanthium strumarium; 2 g of ai/ha) was 40%, the Xanthium strumarium observed (Xanthium strumarium; 4 g of ai/ha) was 50% and the Amaranthus retroflexus observed (Amaranthus retroflexus; 2 g of ai/ha) was 70%. It also gave an Amaranthus retroflexus observed (Amaranthus retroflexus; 4 g of ai/ha) of 70%, a Bromus secalinus observed (Bromus secalinus; 2 g of ai/ha) of 0% and a Bromus secalinus observed (Bromus secalinus; 4 g of ai/ha) of 0%. It also gave a Matricaria inodora observed (Matricaria inodora; [1]) of 70%, an Alopecurus myosuroides observed (Alopecurus myosuroides; 2 g of ai/ha) of 0% and an Alopecurus myosuroides observed (Alopecurus myosuroides; 4 g of ai/ha) of 0%. The Polygonum convolvolus observed (Polygonum convolvolus; 8 g of ai/ha) was 95%, the Polygonum convolvolus observed (Polygonum convolvolus; 15 g of ai/ha) was 95% and the Lolium perenne observed (Lolium perenne; 2 g of ai/ha) was 0%. For the same compound, the Lolium perenne observed (Lolium perenne; 4 g of ai/ha) was 0%, the Lolium perenne observed (Lolium perenne; 8 g of ai/ha) was 20% and the Lolium perenne observed (Lolium perenne; 15 g of ai/ha) was 30%. It also gave an Abutilon theophrasti observed (Abutilon theophrasti; 2 g of ai/ha) of 20%, an Abutilon theophrasti observed (Abutilon theophrasti; 4 g of ai/ha) of 30% and a Viola arvensis observed (Viola arvensis; 2 g of ai/ha) of 0%. It also gave a Viola arvensis observed (Viola arvensis; 4 g of ai/ha) of 0%, a Viola arvensis observed (Viola arvensis; 8 g of ai/ha) of 70% and an Echinochloa crus-galli observed (Echinochloa crus-galli; [1]) of 10%. The Echinochloa crus-galli observed (Echinochloa crus-galli; [2]) was 40%, the Cassia tora observed (Cassia tora; [3]) was 90% and the Cassia tora observed (Cassia tora; [4]) was 95%. For the same compound, the Avena fatua observed (Avena fatua; [1]) was 0%, the Avena fatua observed (Avena fatua; [2]) was 10% and the Avena fatua observed (Avena fatua; [3]) was 30%. It also gave an Avena fatua observed (Avena fatua; [4]) of 50%.
Compound `COc1nn(C(=O)NS(=O)(=O)c2ccccc2OC(F)(F)F)c(=O)n1C` [Flucarbazone-sodium, 2-(2-trifluoromethoxy-phenylsulphonylaminocarbonyl)-4-methyl-5-methoxy-2,4-dihydro-3H-1,2,4-triazol-3-one] has a Veronica persicaria observed (Veronica persicaria; 60 g of ai/ha) of 0%, a Galium aparine observed (Galium aparine; 15 g of ai/ha) of 0% and a Galium aparine observed (Galium aparine; 30 g of ai/ha) of 0%. For the same compound, the Galium aparine observed (Galium aparine; 60 g of ai/ha) was 0%, the Chenopodium album observed (Chenopodium album; 15 g of ai/ha) was 50% and the Chenopodium album observed (Chenopodium album; 30 g of ai/ha) was 50%. For the same compound, the Chenopodium album observed (Chenopodium album; 60 g of ai/ha) was 70%, the Digitaria sanguinalis observed (Digitaria sanguinalis; 30 g of ai/ha) was 20% and the Digitaria sanguinalis observed (Digitaria sanguinalis; 60 g of ai/ha) was 20%. For the same compound, the Xanthium strumarium observed (Xanthium strumarium; 15 g of ai/ha) was 20%, the Xanthium strumarium observed (Xanthium strumarium; 30 g of ai/ha) was 40% and the Xanthium strumarium observed (Xanthium strumarium; 60 g of ai/ha) was 60%. It also gave an Amaranthus retroflexus observed (Amaranthus retroflexus; 15 g of ai/ha) of 90%, an Amaranthus retroflexus observed (Amaranthus retroflexus; 30 g of ai/ha) of 90% and an Amaranthus retroflexus observed (Amaranthus retroflexus; 60 g of ai/ha) of 90%. For the same compound, the Bromus secalinus observed (Bromus secalinus; 15 g of ai/ha) was 70%, the Bromus secalinus observed (Bromus secalinus; 30 g of ai/ha) was 70% and 90% and the Bromus secalinus observed (Bromus secalinus; 60 g of ai/ha) was 80% and 90%. The Stellaria media observed (Stellaria media; 15 g of ai/ha) was 0%, the Stellaria media observed (Stellaria media; 30 g of ai/ha) was 60% and the Stellaria media observed (Stellaria media; 60 g of ai/ha) was 95%. The Matricaria inodora observed (Matricaria inodora; [5]) was 20%, the Matricaria inodora observed (Matricaria inodora; application rate 15 g ai/ha) was 20 and the Matricaria inodora observed (Matricaria inodora; application rate 30 g ai/ha) was 60. For the same compound, the Matricaria inodora observed (Matricaria inodora; application rate 60 g ai/ha) was 60, the Alopecurus myosuroides observed (Alopecurus myosuroides; 15 g of ai/ha) was 70% and the Alopecurus myosuroides observed (Alopecurus myosuroides; 30 g of ai/ha) was 70%. The Alopecurus myosuroides observed (Alopecurus myosuroides; 60 g of ai/ha) was 70%, the Polygonum convolvolus observed (Polygonum convolvolus; 15 g of ai/ha) was 60% and the Polygonum convolvolus observed (Polygonum convolvolus; 30 g of ai/ha) was 70%. The Polygonum convolvolus observed (Polygonum convolvolus; 60 g of ai/ha) was 70%, the Lolium perenne observed (Lolium perenne; 15 g of ai/ha) was 80% and the Lolium perenne observed (Lolium perenne; 30 g of ai/ha) was 90%. For the same compound, the Lolium perenne observed (Lolium perenne; 60 g of ai/ha) was 90%, the Abutilon theophrasti observed (Abutilon theophrasti; 15 g of ai/ha) was 0% and the Abutilon theophrasti observed (Abutilon theophrasti; 30 g of ai/ha) was 0%. The Abutilon theophrasti observed (Abutilon theophrasti; 60 g of ai/ha) was 0%, the Viola arvensis observed (Viola arvensis; 15 g of ai/ha) was 60% and 50% and 80% and the Viola arvensis observed (Viola arvensis; 30 g of ai/ha) was 50%. For the same compound, the Viola arvensis observed (Viola arvensis; 60 g of ai/ha) was 50%, the Eriochloa villosa observed (Eriochloa villosa) was 70% and the Echinochloa crus-galli observed (Echinochloa crus-galli; [4]) was 50%. The Echinochloa crus-galli observed (Echinochloa crus-galli; [5]) was 90%, the Echinochloa crus-galli observed (Echinochloa crus-galli; application rate 15 g ai/ha) was 60 and the Echinochloa crus-galli observed (Echinochloa crus-galli; application rate 30 g ai/ha) was 70. The Echinochloa crus-galli observed (Echinochloa crus-galli; application rate 60 g ai/ha) was 90, the Cassia tora observed (Cassia tora; [4]) was 50% and the Cassia tora observed (Cassia tora; [6]) was 50%. For the same compound, the Cassia tora observed (Cassia tora; [5]) was 50%, the Cassia tora observed (Cassia tora; application rate 15 g ai/ha) was 0 and the Avena fatua observed (Avena fatua; [4]) was 80%. The Avena fatua observed (Avena fatua; [6]) was 90%, the Avena fatua observed (Avena fatua; [5]) was 90% and the Avena fatua observed (Avena fatua; Table B-62, application rate 15 g ai/ha) was 80. The Avena fatua observed (Avena fatua; application rate 15 g ai/ha) was 70, the Avena fatua observed (Avena fatua; application rate 30 g ai/ha) was 70 and the Avena fatua observed (Avena fatua; application rate 60 g ai/ha) was 70. The Datura strumarium observed (Datura strumarium; 15 g of ai/ha) was 70% and the Datura strumarium observed (Datura strumarium; 60 g of ai/ha) was 80%.
